In paper PMC9138102, “The Role of ZIP9 and Androgen Receptor in the Establishment of Tight Junctions between Adult Rat Sertoli Cells” (Biology, 2022):

Columns and labels:
CREB/ATF-1 = test: p-CREB/p-ATF-1 immunofluorescence in PASC1 cells after AR or ZIP9 silencing; format: cell-based, rat; details: 10 nM testosterone or 10 µM IAPG, 24 h, n = 3 × 25
Cldn-1 = Cldn-1 expression in PASC1 cells, immunofluorescence; format: cell-based, rat; details: 10 nM testosterone or 10 µM IAPG, 24 h, n = 3 × 25
Experimental: PASC1 cells were plated at a density of 3.0 × 10^4 on 24-well plates (1 mL/well) and incubated 48 h at 37 °C and 5% CO2 until a confluence of roughly 80% was reached. Cells were rinsed with DPBS and fixed with 100% ice-cold methanol (Roth, Karlsruhe, Germany) on ice for 10 min directly or after stimulation with vehicle, 10 nM testosterone, or 1 µM P1 for 24 h. Cells were then washed with DPBS three times for 5 min, and then incubated in blocking solution (PBS with 3% BSA and 0.3% Triton X-100, both from Sigma-Aldrich) for 1 h at room temperature. The blocking solution was replaced by fresh blocking solution containing the primary antibodies for detection of either AR, p-Erk1/2, p-CREB/p-ATF-1, claudin-1 (Cldn-1), or zonula occludens-1 (ZO-1) (Supplementary Table S1) and incubated overnight at 4 °C. Cells were washed 3 times with DPBS for 3 min each at RT on an orbital shaker, freshly made blocking solution with the appropriate Alexafluor 488-conjugated donkey anti-rabbit secondary antibody was added for 1 h at room temperature on an orbital shaker. After washing 3 times with DPBS, images were obtained using an inverse Olympus IX81 microscope equipped with a fluorescence system. […] The data obtained were analyzed by GraphPad Prism5 (GraphPad Software, Inc., La Jolla, CA, USA).
(§1) For silencing ZIP9 or AR expression, PASC1 cells were treated with commercially available siRNA directed against the expression of ZIP9 or the AR by following the manufacturer’s protocol (Silencer ® Select, siRNA Invitrogen, Darmstadt, Germany). The following oligonucleotides were used: 5′ […]tt3′ and 5′ […]ta 3′ (ZIP9-siRNA for ZIP9 silencing) and 5′[…]tt3′ plus 5′ […]ag 3′ (AR-siRNA for AR silencing). Negative control siRNA (nc-siRNA) was provided in the siRNA kit from the same manufacturer. After incubation of PASC1 for 48 h with ZIP9-siRNA, AR-siRNA, or nc-siRNA, preparation of samples for qRT-PCR, TER measurement, or immunofluorescence experiments were carried out as described above.

JAM-3-specific mRNA = test: JAM-3 mRNA expression in PASC1 cells, qRT-PCR; format: cell-based, rat; details: 10 nM testosterone or 10 µM IAPG, 24 h, n = 3 × 2
Experimental: Primers were designed with http://www.ncbi.nlm.nih.gov/tools/primer-blast (Accessed on 28 February 2022) and were all intron-spanning. Total RNA was isolated from PASC1 with the RNeasy Mini-Kit (Qiagen, Hilden, Germany) and subjected to DNase I treatment as described by the manufacturer. The Reverse Transcription-System first strand cDNA synthesis kit (Invitrogen, Darmstadt, Germany) was used for cDNA synthesis, as recommended. Quantitative real-time PCR (qRT-PCR) amplification was performed in duplicate with iQ TM SYBR Green Super-mix (Bio-Rad; Munich; Germany) on the iCycler iQ System (Bio-Rad). After an initial heating at 94 °C for 5 min, 40 amplification cycles were performed consisting of an initial denaturation of the DNA double strands at 94 °C for 14 s, an annealing phase of the primers at 59 °C for 30 s, and extension of the primers for 15 s at 72 °C. A finalizing extension at 72 °C was carried out for 10 min. Gene expression was measured after reaching the ct value and calculated using the Delta–Delta Ct method. Detection of GAPDH-specific mRNA/cDNA served as normalization of the quantification. Oligonucleotides used in the qRT-PCR, their annealing position, and the expected size of the amplificates are listed in Supplementary Table S2.
as §1

PASC1 cells = test: Transepithelial electrical resistance (TER) across PASC1 cell layers; format: cell-based, rat; details: 10 nM testosterone or 10 µM IAPG, 0, 24, 48, 72 h, n = 6, means ± SEM
Experimental: TER measurements were performed as described. Briefly, 6.0 × 10^4 cells/cm^2 of androgen receptor (AR)- or ZIP9-knockdown PASC1 or non-treated PASC1 cells were seeded on 0.4 μm inserts of 24-well plates (Greiner bio one, Frickenhausen, Germany) and cultured for 48 h until they reached confluence. […] As testosterone was dissolved in ethanol (vehicle), the same volume of ethanol was added to the peptide-treated cells and untreated controls. TER measurements were made with a Millicell ERS-2 epithelial Volt-Ohm meter (Merck Millipore, Darmstadt, Germany). ΩXcm^2 was calculated according to the protocol of the manufacturer by setting the resistance of cell-free inserts to zero.
as §1

[1] = system: androgen binding site ZIP9 of the Sertoli cell line 93RS2; design: method as in PMID 35053053, PMID 35053017; details: 93RS2 / L6 (cell line not separately stated); cited from earlier work
Sertoli cell line 93RS2 = details: 93RS2 cells; ZIP9-mediated; cited from earlier work
From the text: The testosterone receptor responsible for the stimulation of the expression of TJ proteins and the formation of the BTB, however, remains to be defined. The classical androgen receptor (AR) has for decades been undisputed as the mediator of all testosterone effects, including the stimulation of TJ formation at the BTB; however, recent investigations have challenged this assumption. ZIP9, a rather recently identified membrane-bound androgen receptor and zinc transporter from the family of ZRT/IRT-like proteins (ZRT = zinc-regulated transporter; IRT = iron-regulated transporter) ...

[2] = exogenous testosterone; cited from earlier work

Compound | CREB/ATF-1 phosphorylation (CREB/ATF-1; AR-siRNA) | CREB/ATF-1 phosphorylation (CREB/ATF-1; ZIP9-siRNA) | CREB/ATF-1 phosphorylation (CREB/ATF-1; nc-siRNA) | Cldn-1 expression (Cldn-1; AR-siRNA) | Cldn-1 expression (Cldn-1; ZIP9-siRNA) | Cldn-1 expression (Cldn-1; nc-siRNA) | JAM-3 mRNA expression (JAM-3-specific mRNA; AR-siRNA) | JAM-3 mRNA expression (JAM-3-specific mRNA; ZIP9-siRNA) | JAM-3 mRNA expression (JAM-3-specific mRNA; nc-siRNA) | TJ formation (TER) (PASC1 cells; AR-siRNA) | TJ formation (TER) (PASC1 cells; ZIP9-siRNA) | TJ formation (TER) (PASC1 cells; nc-siRNA) | Prevention of T-BSA-FITC binding [1] | Expression of claudin-1 and claudin-5 (Sertoli cell line 93RS2) | TJ formation (Sertoli cell line 93RS2) | Effect on hypothalamic–pituitary–gonadal axis hormones [2] | Effect on male fertility [2] | Germ cell production [2] | Severe side effects [2]
C[C@]12CC[C@H]3[C@@H](CCC4=CC(=O)CC[C@@]43C)[C@@H]1CC[C@@H]2O [testosterone] | to the same extent as cells treated with nc-siRNA | failed to stimulate phosphorylation of CREB/ATF-1 | stimulated CREB/ATF-1 phosphorylation | stimulated the expression of Cldn-1 | failed to do so | stimulated the expression of Cldn-1 | upregulated | remained at basal levels | upregulated | had the same effect | failed to stimulate TJ formation | tighter TJ than the control already after 1 day of treatment, as demonstrated by increased TER | Its binding can be prevented | increased expression of claudin-1 and claudin-5 | enhanced TJ formation | prevents GnRH release from the hypothalamus and FSH and LH from the pituitary, leading to the impairment of testosterone production in Leydig cells | unfavorably affects male fertility | germ cell production under these conditions is halted | polycythemia, cardiac hypertrophy, and myocardial infarction
IAPG | to the same extent as cells treated with nc-siRNA | failed to stimulate phosphorylation of CREB/ATF-1 | stimulated CREB/ATF-1 phosphorylation | stimulated the expression of Cldn-1 | failed to do so | stimulated the expression of Cldn-1 | upregulated | remained at basal levels | upregulated | had the same effect | failed to stimulate TJ formation | tighter TJ than the control already after 1 day of treatment, as demonstrated by increased TER | Its binding can be prevented | – | – | – | – | – | –
